Source: patent US11976072B2, “Diacylglycerol kinase modulating compounds” (priority 2021, dated 2024)

Tests used:
human DGKα = human DGKα (Homo sapiens, UniProt P23743); assay: DGKα Biochemical Activity Assay (ADP-Glo); settings: recombinant DGKα 1 nM, 100 μM ATP, 18:1 DAG/POPS/octylglucoside micelles, 1 hour at 25° C.; geometric mean; read-out: HTBS DGKa 1X ATP KM IC50;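 note: luminescent detection of ADP produced as DGKα phosphorylates DAG to phosphatidic acid, IC50 from four-parameter nonlinear curve fit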
Chain of human DGKα (P23743 whole entry): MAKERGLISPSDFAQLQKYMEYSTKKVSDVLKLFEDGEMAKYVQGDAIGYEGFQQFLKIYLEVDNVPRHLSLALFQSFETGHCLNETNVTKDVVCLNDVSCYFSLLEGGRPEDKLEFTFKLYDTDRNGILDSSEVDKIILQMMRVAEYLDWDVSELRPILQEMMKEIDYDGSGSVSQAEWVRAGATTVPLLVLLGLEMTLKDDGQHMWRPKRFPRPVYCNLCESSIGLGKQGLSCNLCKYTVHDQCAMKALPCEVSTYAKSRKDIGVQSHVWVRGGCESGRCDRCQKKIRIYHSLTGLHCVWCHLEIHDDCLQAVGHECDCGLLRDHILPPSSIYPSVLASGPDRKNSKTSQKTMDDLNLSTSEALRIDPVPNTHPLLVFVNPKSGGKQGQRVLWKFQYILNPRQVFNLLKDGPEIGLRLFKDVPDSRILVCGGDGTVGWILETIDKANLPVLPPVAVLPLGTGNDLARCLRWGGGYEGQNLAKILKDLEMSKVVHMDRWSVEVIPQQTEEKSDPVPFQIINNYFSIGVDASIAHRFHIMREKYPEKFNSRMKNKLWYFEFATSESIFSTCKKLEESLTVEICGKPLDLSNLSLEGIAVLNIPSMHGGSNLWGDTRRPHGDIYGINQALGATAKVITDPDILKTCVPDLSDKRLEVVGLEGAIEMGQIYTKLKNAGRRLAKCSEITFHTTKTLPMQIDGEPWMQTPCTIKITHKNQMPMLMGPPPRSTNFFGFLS

[1] = test system: Jurkat NFκB-luciferase cells; assay: Jurkat NFκB-Luciferase Assay; type: cell-based; settings: Homo sapiens; Jurkat NFκB-luciferase cells activated with anti-CD3 antibody (OKT3), 2.5 hrs at 37° C.; geometric mean; read-out: DGK NFKb Luciferase EC50
Experimental: The day after, the excess antibody was washed out five times with 100 ul/well of assay medium (RPMI supplemented with 10% fetal bovine serum) using a Biotek EL406 instrument and leaving 20 ul of residual volume in each well. Jurkat NFκB-luciferase cells (Promega #) were harvested and diluted to 1 million cells/ml in assay medium. […] Thirty microliters of medium containing the Jurkat NFκB-luciferase cells were then dispensed using a Biotek MicroFlo instrument in each well of the compound-containing plate. […] Forty microliters of One-Glo Ex (Promega) was then added to the assay mixture and luciferase activity was read on a Envision plate reader 7 minutes later.

Row | IC50 (human DGKα) | EC50 [1] | Compound
1 | 32.8 nM | 1.64 nM | Cc1nnc2nc(N(CC(F)F)c3cccc(C#CC4(C(F)(F)F)CC4)c3F)c3c(F)cccc3n12 [Example 54, N-(2,2-difluoroethyl)-6-fluoro-N-[2-fluoro-3-[2-[1-(trifluoromethyl)cyclopropyl]ethynyl]phenyl]-1-methyl-[1,2,4]triazolo[4,3-a]quinazolin-5-amine]
2 | 21.6 nM | 3.42 nM | Cc1nnc2nc(N(CC(F)F)c3cccc(C#CC(C)(C)C(F)F)c3F)c3cc(F)ccc3n12 [Example 55, N-[3-(4,4-difluoro-3,3-dimethyl-but-1-ynyl)-2-fluoro-phenyl]-N-(2,2-difluoroethyl)-7-fluoro-1-methyl-[1,2,4]triazolo[4,3-a]quinazolin-5-amine]
3 | 13.5 nM | 0.805 nM | Cc1nnc2nc(N(CC(F)F)c3cccc(C#CC4(C)CC4)c3F)c3cc(F)ccc3n12 [Example 56, N-(2,2-difluoroethyl)-7-fluoro-N-[2-fluoro-3-[2-(1-methylcyclopropyl)ethynyl]phenyl]-1-methyl-[1,2,4]triazolo[4,3-a]quinazolin-5-amine]
4 | 46.2 nM | 0.669 nM | CC(C)(C#Cc1cccc(N(CC(F)F)c2nc3nncn3c3ccc(F)cc23)c1F)C(F)F [Example 57, N-[3-(4,4-difluoro-3,3-dimethyl-but-1-ynyl)-2-fluoro-phenyl]-N-(2,2-difluoroethyl)-7-fluoro-[1,2,4]triazolo[4,3-a]quinazolin-5-amine]
5 | 78.3 nM | 3.67 nM | Cc1nnc2nc(N3c4cccc(C#CC5(C(F)(F)F)CC5)c4CCC3C)c3c(F)cccc3n12 (centres unmarked) [Example 58, 6-fluoro-1-methyl-5-(2-methyl-5-((1-(trifluoromethyl)cyclopropyl)ethynyl)-3,4-dihydroquinolin-1(2H)-yl)-[1,2,4]triazolo[4,3-a]quinazoline]
6 | 11.2 nM | 11.7 nM | Cc1nnc2nc(N3c4cccc(C#CC(C)(C)O)c4CCC3C)c3c(F)cccc3n12 (centres unmarked) [Example 59, 4-(1-(6-fluoro-1-methyl-[1,2,4]triazolo[4,3-a]quinazolin-5-yl)-2-methyl-1,2,3,4-tetrahydroquinolin-5-yl)-2-methylbut-3-yn-2-ol]
7 | 69.2 nM | 532 nM | CC(C)(O)C#Cc1cc(N(CC(F)F)c2nc3nncn3c3c(Cl)cc(F)cc23)ccn1 [Example 60, 4-(4-((9-chloro-7-fluoro-[1,2,4]triazolo[4,3-a]quinazolin-5-yl)(2,2-difluoroethyl)amino)pyridin-2-yl)-2-methylbut-3-yn-2-ol]
8 | 8.48 nM | 3.36 nM | CC1(C#Cc2cc(N(CC(F)F)c3nc4nncn4c4c(Cl)cc(F)cc34)ccn2)CC1 [Example 61, 9-chloro-N-(2,2-difluoroethyl)-7-fluoro-N-(2-((1-methylcyclopropyl)ethynyl)pyridin-4-yl)-[1,2,4]triazolo[4,3-a]quinazolin-5-amine]
9 | 80.1 nM | 3.24 nM | Cc1nnc2nc(N(CC(F)F)c3cc(F)cc(C#CC(C)(C)c4ccncc4)c3)c3c(F)c(F)ccc3n12 [Example 62, N-(2,2-difluoroethyl)-6,7-difluoro-N-(3-fluoro-5-(3-methyl-3-(pyridin-4-yl)but-1-yn-1-yl)phenyl)-1-methyl-[1,2,4]triazolo[4,3-a]quinazolin-5-amine]
10 | 19.4 nM | 4.17 nM | Cc1nnc2nc(N3CCOCc4c(C#CC(C)(C)C(=O)NC(C)(C)C(F)(F)F)cccc43)c3c(F)c(F)ccc3n12 [Example 63, 4-(1-(6,7-difluoro-1-methyl-[1,2,4]triazolo[4,3-a]quinazolin-5-yl)-1,2,3,5-tetrahydrobenzo[e][1,4]oxazepin-6-yl)-2,2-dimethyl-N-(1,1,1-trifluoro-2-methylpropan-2-yl)but-3-ynamide]
11 | 9.97 nM | 7.43 nM | Cc1nnc2nc(N3CCOCc4c(C#CC(C)(C)C(=O)NC5(C(F)(F)F)CC5)cccc43)c3c(F)c(F)ccc3n12 [Example 64, 4-(1-(6,7-difluoro-1-methyl-[1,2,4]triazolo[4,3-a]quinazolin-5-yl)-1,2,3,5-tetrahydrobenzo[e][1,4]oxazepin-6-yl)-2,2-dimethyl-N-(1-(trifluoromethyl)cyclopropyl)but-3-ynamide]
12 | 189 nM | 46.7 nM | Cc1nnc2nc(N3CCCc4c(C#CC(C)(C)C(=O)NC5(C(F)(F)F)CC5)cccc43)c3c(F)cccc3n12 [Example 65, 4-(1-(6-fluoro-1-methyl-[1,2,4]triazolo[4,3-a]quinazolin-5-yl)-1,2,3,4-tetrahydroquinolin-5-yl)-2,2-dimethyl-N-(1-(trifluoromethyl)cyclopropyl)but-3-ynamide]
13 | 12.8 nM | 6.78 nM | Cc1cnc(C(C)(C)C#Cc2cccc3c2COCCN3c2nc3nnc(C)n3c3ccc(F)c(F)c23)o1 [Example 66, 1-(6,7-difluoro-1-methyl-[1,2,4]triazolo[4,3-a]quinazolin-5-yl)-6-(3-methyl-3-(5-methyloxazol-2-yl)but-1-yn-1-yl)-1,2,3,5-tetrahydrobenzo[e][1,4]oxazepine]
14 | 156 nM | 11.6 nM | Cc1nnc2nc(N(CC(F)F)c3cc(F)cc(C#CC(C)(C)c4cccnc4)c3)c3c(F)c(F)ccc3n12 [Example 67, N-(2,2-difluoroethyl)-6,7-difluoro-N-(3-fluoro-5-(3-methyl-3-(pyridin-3-yl)but-1-yn-1-yl)phenyl)-1-methyl-[1,2,4]triazolo[4,3-a]quinazolin-5-amine]
15 | 191 nM | 9.68 nM | Cc1nnc2nc(N(CC(F)F)c3cc(F)cc(C#CC(C)(C)c4ccccn4)c3)c3c(F)c(F)ccc3n12 [Example 68, N-(2,2-difluoroethyl)-6,7-difluoro-N-(3-fluoro-5-(3-methyl-3-(pyridin-2-yl)but-1-yn-1-yl)phenyl)-1-methyl-[1,2,4]triazolo[4,3-a]quinazolin-5-amine]
16 | 70.5 nM | 2.26 nM | Cc1nnc2nc(N3CCCc4c(C#CC(C)(C)C(=O)N5CCC(F)(F)CC5)cccc43)c3c(F)cccc3n12 [Example 69, 1-(4,4-difluoropiperidin-1-yl)-4-(1-(6-fluoro-1-methyl-[1,2,4]triazolo[4,3-a]quinazolin-5-yl)-1,2,3,4-tetrahydroquinolin-5-yl)-2,2-dimethylbut-3-yn-1-one]
17 | 29.2 nM | 5.62 nM | Cc1nnc2nc(N3CCCc4c(C#CC(C)(C)C(=O)N5CCOC(C)(C)C5)cccc43)c3c(F)cccc3n12 [Example 70, 1-(2,2-dimethylmorpholino)-4-(1-(6-fluoro-1-methyl-[1,2,4]triazolo[4,3-a]quinazolin-5-yl)-1,2,3,4-tetrahydroquinolin-5-yl)-2,2-dimethylbut-3-yn-1-one]
18 | 124 nM | 11.3 nM | Cc1nnc2nc(N3CCCc4c(C#CC(C)(C)c5ccccn5)cccc43)c3c(F)cccc3n12 [Example 71, 6-fluoro-1-methyl-5-(5-(3-methyl-3-(pyridin-2-yl)but-1-yn-1-yl)-3,4-dihydroquinolin-1(2H)-yl)-[1,2,4]triazolo[4,3-a]quinazoline]
19 | 19.8 nM | 2.2 nM | Cc1cnc(C(C)(C)C#Cc2cccc3c2CCCN3c2nc3nnc(C)n3c3cccc(F)c23)o1 [Example 72, 2-(4-(1-(6-fluoro-1-methyl-[1,2,4]triazolo[4,3-a]quinazolin-5-yl)-1,2,3,4-tetrahydroquinolin-5-yl)-2-methylbut-3-yn-2-yl)-5-methyloxazole]
